Test system: root-knot nematode (RKN), Meloidogyne incognita
Assay: Root-knot nematode control on tomato, pots infested 48 hours after soil treatment (set 1), gall rating
Format: in vivo
Settings: rating scale 0-10
Method: Formulations AA to FF, excluding DD, were tested for efficacy and persistence in soil for controlling root-knot nematode (RKN), Meloidogyne incognita, on tomato. A three-week old tomato (Lycopersicon esculentum, var “Rutgers”) was planted in a 10 cm square pot containing a nonsterile 50:50 sand:soil mixture. Ten replicate pots (five replicates for two sets of tests) were prepared for each rate of application of test formulation. Stock dispersions of each of the test formulations were prepared by dispersing a sufficient amount of test material in 100 ml of water to give rates of application of 0.25, 0.5, 1, and 2 kg a.i./ha. Each pot received 10 ml of the appropriate suspension on the surface immediately around the tomato, and a control treatment for each of the two experimental set of pots received only water. Pots were also prepared as above with the same rates of the 100 ME cadusafos formulation and technical cadusafos. The RKN eggs used in the experiment were separated from a gelatinous matrix by vigorously shaking the roots of heavy galled tomato plants for four minutes in a 1% aqueous sodium hypochlorite solution. The resulting egg suspension was rapidly poured through nested 60, 325, and 500 mesh sieves. The eggs were collected on the 500 mesh sieve and gently rinsed with water to remove any excess sodium hypochlorite. The eggs were taken up in water, and the resulting aqueous suspension was appropriately diluted with water to give about 2000 eggs per plant which results in an effective inoculant level of about 1000 infective larvae per pot. The eggs were counted using a dissecting microscope. All the pots were infested with nematodes by pippetting the inoculum into the openings around the roots of the previously treated tomato transplants. Pots infested with nematodes 48 hours after soil treatment, hereafter referred to as “set 1”. Pots for examination of residual activity, hereafter referred to as “set 2”, were treated and maintained in the greenhouse for seven days prior to nematode infestations. Upon nematode infestation, the pots were maintained in the greenhouse for 28 days and monitored for phytotoxicity symptoms. At the conclusion of the 28 day period, the soil was washed away from the tomato plants roots and rated according to the following scheme: […]

CCOP(=O)(SC(C)CC)SC(C)CC (stereo not shown) [Technical]
Mean Root-Knot Gall Rating (infested 48 hours after treatment, rate 0.25 Kg/Ha): 2.4
Mean Root-Knot Gall Rating (infested 48 hours after treatment, rate 0.5 Kg/Ha): 1.2
Mean Root-Knot Gall Rating (second printing of Table 7, 48 hours after treatment, rate 0.25 Kg/Ha): 2.4
Mean Root-Knot Gall Rating (second printing of Table 7, 48 hours after treatment, rate 0.5 Kg/Ha): 1.2

From patent publication US6440443B1, “Microencapsulation formulations of cadusafos” (priority 1998, dated 2002)
